Peptide text beside a SMILES is read from it. A value given as a limit tells only on which side of the number the result lay.

The values below come from article PMC6677754, “In silico design and optimization of selective membranolytic anticancer peptides” (Scientific Reports, 2019).

In series [1] the test system is Ovarian cancer cell lines. Briefly: NCI-60 screening, average of cancer type. The format is cell-based, human. To be noted: for log GI50: Table 5, Ovarian, averaged over cell lines, 48 h, sulforhodamine B, 10^-4 to 10^-8 M; for Log GI (M): Table S3, Ovarian, averaged activity for the cancer type, log GI50. Here is the method: (§1) NCI-60 screening procedure
(§2) The NCI-60 screening procedure was performed by the Developmental Therapeutics Program of the National Cancer Institute. The procedure was performed as previously described24 in 96-well microtiter plates. Each peptide was tested in a 5-concentration assay, starting at 10^-4 M and diluting 10-fold to the lowest 10^-8 M concentration. The peptides were incubated for 48 h and the cell concentration was assayed by using the sulforhodamine B assay25 and optical density measurements. The growth inhibition (GI50) value24, measures the growth inhibitory power of the drug agent. The GI50 value is the concentration of the test drug for which the condition in Eq. S1 is met, where T is the optical density of the test well after a 48-h exposure to the peptide, T0 the optical density before applying the peptide drug and C the control optical density of a well where no peptide was applied.

The test system of series [2] is Prostate cancer cell lines. Briefly: NCI-60 screening, average of cancer type. The format is cell-based, human. The following applies: for log GI50: Table 5, Prostate, averaged over cell lines, 48 h, sulforhodamine B, 10^-4 to 10^-8 M; for Log GI (M): Table S3, Prostate, averaged activity for the cancer type, log GI50. The protocol:
as §1, §2

The next series deals with Lung cancer cell lines. The experiment in a line: NCI-60 screening, average of cancer type. Type of series: cell-based, human. The following applies: for log GI50: Table 5, Lung, averaged over cell lines, 48 h, sulforhodamine B, 10^-4 to 10^-8 M; for Log GI (M): Table S3, Lung, averaged activity for the cancer type, log GI50. The protocol:
as §1, §2

For a further series, the system named is CNS cancer cell lines. The experiment in a line: NCI-60 screening, average of cancer type. The format is cell-based, human. The following applies: for log GI50: Table 5, CNS, averaged over cell lines, 48 h, sulforhodamine B, 10^-4 to 10^-8 M; for Log GI (M): Table S3, CNS, averaged activity for the cancer type, log GI50. The protocol:
as §1, §2

A further series deals with Colon cancer cell lines. Briefly: NCI-60 screening, average of cancer type. The following applies: for log GI50: Table 5, Colon, averaged over cell lines, 48 h, sulforhodamine B, 10^-4 to 10^-8 M; for Log GI (M): Table S3, Colon, averaged activity for the cancer type, log GI50. The format is cell-based, human. The protocol:
as §1, §2

Another series deals with Melanoma cell lines. The experiment in a line: NCI-60 screening, average of cancer type. Type of series: cell-based, human. To be noted: for log GI50: Table 5, Melanoma, averaged over cell lines, 48 h, sulforhodamine B, 10^-4 to 10^-8 M; for Log GI (M): Table S3, Melanoma, averaged activity for the cancer type, log GI50. Here is the method: as §1, §2
A further series deals with Renal cancer cell lines. The experiment in a line: NCI-60 screening, average of cancer type. To be noted: for log GI50: Table 5, Renal, averaged over cell lines, 48 h, sulforhodamine B, 10^-4 to 10^-8 M; for Log GI (M): Table S3, Renal, averaged activity for the cancer type, log GI50. The format is cell-based, human. Here is the method:
as §1, §2

Another series relates to Leukemia cell lines. Briefly: NCI-60 screening, average of cancer type. Type of series: cell-based, human. The following applies: for log GI50: Table 5, Leukemia, averaged over cell lines, 48 h, sulforhodamine B, 10^-4 to 10^-8 M; for Log GI (M): Table S3, Leukemia, averaged activity for the cancer type, log GI50. The protocol:
as §1, §2

A further series relates to Breast cancer cell lines. Briefly: NCI-60 screening, average of cancer type. The following applies: for log GI50: Table 5, Breast, averaged over cell lines, 48 h, sulforhodamine B, 10^-4 to 10^-8 M; for Log GI (M): Table S3, Breast, averaged activity for the cancer type, log GI50. The format is cell-based, human. Here is the method:
as §1, §2

The next series deals with human erythrocytes. The experiment in a line: Hemolysis assay. Type of series: cell-based. The following applies: for Eryhtr. HC50 /µM: 1 h. The method in brief:
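Washed human erythrocytes (5% v/v in PBS) were mixed with peptide plated as a 200–6.25 μM series, in triplicate, for 1 h at 37 °C. Released haemoglobin in the supernatant was read at 540 nm, scaled to 0.1% Triton X-100 (100%) and PBS (0%). HC50 came from a 3-parameter log-logistic fit.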

As for `CC[C@H](C)[C@H](NC(=O)[C@H](CCCNC(=N)N)NC(=O)[C@H](Cc1c[nH]c2ccccc12)NC(=O)[C@@H](NC(=O)[C@H](CCCCN)NC(=O)[C@H](CCCCN)NC(=O)[C@@H](NC(=O)[C@@H](NC(=O)[C@@H](NC(=O)[C@H](CCCCN)NC(=O)[C@H](Cc1ccccc1)NC(=O)[C@H](CCCCN)NC(=O)[C@H](CCCCN)NC(=O)[C@H](Cc1ccccc1)NC(=O)[C@@H](NC(=O)[C@@H](N)CCCCN)[C@@H](C)CC)[C@@H](C)O)[C@@H](C)CC)[C@@H](C)CC)C(C)C)C(=O)N[C@@H](Cc1ccccc1)C(=O)NCC(=O)N[C@@H](CCCNC(=N)N)C(=O)N[C@@H](Cc1ccccc1)C(N)=O` [AmphiArc2] (H-KIFKKFKTIIKKVWRIFGRF-NH2), the “log GI50” value is recorded as −5.6 M in series [1]; −5.7 M in [2]; −5.6 M in the series with Lung cancer cell lines; −5.6 M in the series on CNS cancer cell lines; −5.6 M in the series on Colon cancer cell lines; −5.6 M with Melanoma cell lines. Besides, the “log GI50” value in the series on Renal cancer cell lines is on record as −5.7 M; with Leukemia cell lines, −5.5 M; with Breast cancer cell lines, −5.6 M. For the same compound, the “Log GI (M)” value in series [1] is reported as -5.60 M; in [2], -5.72 M; in the series with Lung cancer cell lines it was -5.65 M; in the series on CNS cancer cell lines, -5.63 M; in the series on Colon cancer cell lines, -5.57 M; with Melanoma cell lines, -5.64 M. The “Log GI (M)” value is recorded as -5.67 M in the series with Renal cancer cell lines, -5.50 M in the series on Leukemia cell lines and -5.65 M in the series with Breast cancer cell lines. In addition, the “half-effective hemolytic concentration (HC50) against human erythrocytes (in words)” value with human erythrocytes (Fig. 1d, compared with the EC50 against cancer cell lines, N = 3) is “same low-micromolar range”. Besides, the “Eryhtr. HC50 /µM” value in the series on human erythrocytes (Table S2, 5% v/v erythrocytes in PBS added 1:1, peptide 200 to 6.25 µM, 37°C, absorbance 540 nm, 0.1% Triton-X-100 = 100%, mean ± sd, N = 2 independent, three technical replicates) turned out to be 16 ± 2 µM.
For `CC[C@H](C)[C@H](NC(=O)[C@H](CCCCN)NC(=O)[C@H](CCCCN)NC(=O)[C@@H](NC(=O)[C@@H](NC(=O)[C@@H](N)Cc1c[nH]cn1)[C@@H](C)CC)[C@@H](C)CC)C(=O)N[C@@H](CCCNC(=N)N)C(=O)N[C@H](C(=O)N[C@@H](Cc1c[nH]c2ccccc12)C(=O)N[C@@H](Cc1ccc(O)cc1)C(=O)N[C@@H](CCCNC(=N)N)C(=O)N[C@@H](CCCCN)C(=O)N[C@@H](C)C(=O)N[C@@H](Cc1c[nH]c2ccccc12)C(=O)N[C@@H](Cc1c[nH]cn1)C(=O)N[C@H](C(=O)N[C@@H](CC(C)C)C(=O)NCC(=O)N[C@@H](CCCCN)C(=O)N[C@H](C(N)=O)C(C)C)C(C)C)[C@@H](C)O` [Off2] (H-HIIKKIRTWYRKAWHVLGKV-NH2), the “log GI50” value in series [1] was −5.2 M; in [2], −5.5 M; in the series with Lung cancer cell lines it was −5.4 M; with CNS cancer cell lines, −5.2 M; with Colon cancer cell lines it was −5.2 M; in the series on Melanoma cell lines, −5.3 M. Also, the “log GI50” value was −5.3 M with Renal cancer cell lines, −5.2 M in the series on Leukemia cell lines and −5.4 M in the series on Breast cancer cell lines. In addition, the “Log GI (M)” value in series [1] is reported as -5.17 M; in series [2] it was -5.46 M; in the series on Lung cancer cell lines, -5.37 M; with CNS cancer cell lines, -5.21 M; in the series with Colon cancer cell lines it was -5.24 M; in the series with Melanoma cell lines, -5.33 M. For the same compound, the “Log GI (M)” value is -5.28 M in the series on Renal cancer cell lines, -5.17 M with Leukemia cell lines and -5.36 M in the series on Breast cancer cell lines. The “Eryhtr. HC50 /µM” value in the series with human erythrocytes (red cells of human) was above 200 µM.
